US8084499B2, “Modified clay mineral” (Ajinomoto Co., Inc., priority 2006, dated 2011)

Assay: Emulsion stability (B-type viscometer, 60 rpm viscosity / 6 rpm viscosity)
Conditions: emulsion compositions similar to Example 1, compound of formula (1) with given R1/R2 instead of cocoylarginine ethyl ester
Experimental: A B-type (Brookfield type) viscometer (manufactured by TOKYO KEIKI, DIGITAL VISCOMETER DVL-B) was used. About 100 ml of each emulsion composition was placed in a glass vial container, a rotor was appropriately selected, and the value obtained at a room temperature condition of 25° C., number of rotation of 6 or 60 rpm after 30 seconds was taken as the measurement value at each number of rotation. The measurement value at 60 rpm was divided by the measurement value at 6 rpm, and 0.10 to 0.19 was rated as ⊙, 0.20 to 0.29 was rated as ◯, 0.30 to 0.39 was rated as Δ, and not less than 0.40 was rated as x.

SMILES | emulsion stability, rating
CCCCCCCCCCCCCCCC(=O)NC(CCCNC(=N)N)C(=O)OCC (stereo not shown) [palmitic acid residue / ethyl group, N-palmitoylarginine ethyl ester cation] | ⊙ (0.10 to 0.19 was rated as ⊙)
CCCCCCCCCCCCCCCCCC(=O)N[C@@H](CCCNC(=N)N)C(=O)OCC [stearic acid residue / ethyl group, N-stearoylarginine ethyl ester cation] | ⊙ (0.10 to 0.19 was rated as ⊙)
CCCCCCCCCCCC(=O)NC(CCCNC(=N)N)C(=O)OC(C)CC (stereo not shown) [lauric acid residue / s-butyl group, N-lauroylarginine s-butyl ester cation] | ⊙ (0.10 to 0.19 was rated as ⊙)
CCCCCCCCCCCC(=O)N[C@@H](CCCNC(=N)N)C(=O)OC(C)C [lauric acid residue / isopropyl group, N-lauroylarginine isopropyl ester cation] | ⊙ (0.10 to 0.19 was rated as ⊙)
CCCCCCCCCCCC(=O)NC(CCCNC(=N)N)C(=O)OCC(C)C (stereo not shown) [lauric acid residue / isobutyl group, N-lauroylarginine isobutyl ester cation] | ⊙ (0.10 to 0.19 was rated as ⊙)
CCCCCCCCCCCC(=O)NC(CCCNC(=N)N)C(=O)OCC (stereo not shown) [lauric acid residue / ethyl group, N-lauroylarginine ethyl ester cation] | ⊙ (0.10 to 0.19 was rated as ⊙)
CCCCCCCC/C=C\CCCCCCCC(=O)NC(CCCNC(=N)N)C(=O)OCC (stereo not shown) [oleic acid residue / ethyl group, N-oleylarginine ethyl ester cation] | ⊙ (0.10 to 0.19 was rated as ⊙)
